According to US20020035998A1, “Method for treatment of cancer and infectious disease” (priority 1995, published 2002):

Legend:
K562 target cells = test: NK cell cytotoxicity (NKCC), 16-hour 51Cr-release assay against K562 target cells; assay type: cell-based, human; conditions: for NK cell cytotoxicity (NKCC) after treatment: serotonin 10^−4 M and/or IFN-α 25 U/ml, 16 h, 10^4 K562, mean ± SEM of six
Text: (§1) MNC were obtained from peripheral venous blood from healthy human blood donors by Ficoll-Hypaque centrifuging, followed by Percoll density-gradient fractionation (Timonen and Saksela, 1980, J. Immunol. Methods 36, 285-291; Hellstrand and Hermodsson, 1990, Scand. J. Immunol. 31, 631-645).
(§2) The target cells used in these experiments were K562, an NK-cell sensitive erythroleukemic cell line, or Daudi, a relatively NK-insensitive EBV-transformed B-cell lymphoblastoid cell line.
(§3) The NKCC was determined six times as the specific ^51Cr-release for a NMNC: target-cell ratio of between 30:1 and 3.8:1 in two-fold dilution gradients. The suspensions of MNC/target cells were incubated in microplates at 37° C. for 6 hours (Daudi) or 16 hours (K562). The supernatant solution was then collected and examined for radioactivity in a gamma counter. The maximum ^51Cr-release was measured in target cell cultures treated with Triton X-100. The NKCC was calculated as the cell lysis % by the formula 100×(experimental release−spontaneous release/maximum release−spontaneous release)=cell lysis %.
A low-density Percoll fraction was separated by counterflow centrifuge elusion (CCE) in a monocyte and in a lymphocyte fraction. The monocyte fraction was concentrated to >90% purity whereupon the contaminating cells consisted of large lymphocytes. The lymphocyte fractions obtained by CCE contained <3% monocytes, determined by morphology and Leu-M3 (CD14) antigen expression. The lymphocytes were […], […] , CD3^+/16^−/56^− T cells (45-50%), CD3^+/16^+/56^+ cells (1-5%), determined by flow cytometry.
J The eluted monocytes and/or the NK cell-concentrated low-density lymphocytes were treated with IFN-α and histamine/serotonin. The compounds were added, separately or in combination, to mixtures of MNC and K562 target cells at the start of a 16-hour ^51Cr-release assay. The cytotoxicity against K562 in the NK cell-concentrated lymphocyte fraction was increased by IFN-α and unaffected by histamine or serotonin. […] The addition of eluted monocytes to the NK cell concentrated lymphocytes suppressed the baseline cytotoxicity to K562.
In the experiments reported in Table 1, eluted lymphocytes were mixed with monocytes as shown in the table, in a total volume of 150 μl. The data are NKCC (mean ±SEM) of six determinations. Serotonin 10^−4 M and/or IFN-α (25 U/ml) was added at the start of a 16-hour microcytotoxicity test against 10^4 K562 target cells.
(§4) In the results shown in Table 2, MNC from five different donors were used. All compounds were added to mixtures of MNC and target cells at the start of a 6 h (Daudi) or 16 h (K562) effecter and target cell incubation. The effecter cells were obtained from Percoll fractions 7-8, containing 33-55% monocytes.
Cells from the monocyte-containing Percoll fraction 8 were incubated with culture medium, histamine (10^−4 M) or serotonin (10^−4 M) in the presence of IFN-α (0-100 U/ml). The data shown are NKCC (cell lysis %; mean±SEM of six determinations). The compounds were added at the start of a 16 h microcytotoxicity test against K 562 target cells.

Daudi target cells = test: NK cell cytotoxicity (NKCC), 6-hour 51Cr-release assay against Daudi target cells; assay type: cell-based, human; conditions: Daudi 6 h; for NKCC after treatment with Medium: no IFN
Text: as §1, §2, §3, §4
In the experiment shown in Table 3, culture medium (control), histamine (10^−4 M), dimaprit (10^−4 M), ranitidine (ran) (10^−4 M) and/or IFN-α (25 U/ml) were added at the start of a 6-hour ^51Cr release assay using Daudi target cells. The data are representative of three similar experiments. NKCC is given as mean cell lysis %±SEM of six determinations. The effecter cells were recovered from a low-density Percoll fraction 8, containing around 40% monocytes.
In the experiment shown in Table 4, culture medium (control), serotonin, 8-OH-DPAT (+)-ALK and/or IFN-α (25 U/ml) were added at the start of a 6-hour ^51Cr-release assay against Daudi target cells. The NKCC is given as cell lysis %±SEM of six determinations. The effector cells were recovered from the low-density Percoll fraction 7, containing around 36% monocytes.

[1] = mixtures of eluted monocytes and NK cell-enriched lymphocytes

Question: Which results are given for `NCCc1c[nH]c2ccc(O)cc12` [Serotonin, serotonin]?
Answer: cytotoxicity against K562 in the NK cell-concentrated lymphocyte fraction (K562 target cells; eluted lymphocytes without monocytes, 16-hour assay): unaffected; basal cytotoxicity of lymphocytes in mixtures of monocytes and lymphocytes (K562 target cells; [1]): restored; monocyte induced inhibition of the NK cell response to IFN-α (K562 target cells; [1]): eliminated; NK cell cytotoxicity (NKCC) after treatment (K562 target cells; monocytes 0, lymphocytes 12 (×10^−4)): 34 ± 3%; NK cell cytotoxicity (NKCC) after treatment (K562 target cells; monocytes 6, lymphocytes 12 (×10^−4)): 31 ± 2%; NK cell cytotoxicity (NKCC) after treatment (K562 target cells; monocytes 12, lymphocytes 12 (×10^−4)): 31 ± 2%; NKCC after treatment with IFN (Daudi target cells; agonist 10^−4 M plus IFN-α 25 U/ml, Percoll fraction 7): 44.3 ± 1%; NKCC after treatment with Medium (Daudi target cells; agonist 10^−4 M, Percoll fraction 7, around 36% monocytes): 10.4 ± 1%; NKCC after treatment with IFN (Daudi target cells; agonist 10^−5 M plus IFN-α 25 U/ml, Percoll fraction 7): 33.2 ± 1%; NKCC after treatment with Medium (Daudi target cells; agonist 10^−5 M, Percoll fraction 7): 4.5 ± 0.3%; NKCC after treatment with IFN (Daudi target cells; agonist 10^−6 M plus IFN-α 25 U/ml, Percoll fraction 7): 12.3 ± 1%; NKCC after treatment with Medium (Daudi target cells; agonist 10^−6 M, Percoll fraction 7): 2.2 ± 0.4%
